US9428456B2, “1-[m-carboxamido(hetero)aryl-methyl]-heterocyclyl-carboxamide derivatives” (Actelion Pharmaceuticals Ltd., priority 2012, dated 2016)

Molecular target: CXCR7 (Homo sapiens (Human), UniProt P25106)
Assay: PathHunter CHO-K1 CXCR7 b-arrestin assay (agonistic activity)
Assay type: cell-based
Settings: PathHunter CHO-K1 CXCR7 b-arrestin cell line
Method: The CXCl12 receptor and CXCR7 agonistic activities of the compounds of formula (I) are determined in accordance with the following experimental method.
The assay is using the PathHunter™ CHO-K1 CXCR7 b-arrestin cell line from DiscoverX. The system is based on the Enzyme Fragment Complementation Technology. Two complementing fragments of the b-galactosidase enzyme are expressed within stably transfected cells. The larger portion of b-gal, termed EA for Enzyme Acceptor, is fused to the C-terminus of b-arrestin 2. The smaller fragment, termed ProLink™ tag, is fused to CXCR7 at the C-terminus. Upon activation, b-arrestin is recruited which forces the interaction of ProLink and EA, allowing complementation of the two fragments of b-gal and the formation of a functional enzyme which is capable of hydrolysing the substrate and generating a chemiluminescent signal.
CHO-K1 CXCR7 b-arrestin cells are detached from culture dishes with a cell dissociation buffer (Invitrogen, #13151-014) and collected in growing medium (F12 HAMS 90% (v/v)/FCS 10% (v/v), Penicilin/streptomycin 1% (v/v)). 5000 cells per well (in 20 μl) are seeded in a 384 well plate (white-walled, clear bottom; BD Falcon #353274). The plate is incubated at 37° C./5% CO2 for 24 hours. Medium is then replaced by 20 μl OPTIMEM (Invitrogen #31985) for 3 to 4 hours. Test compounds are dissolved at 10 mM in DMSO and serially diluted in DMSO to 200× of the final concentration for dose response curves. Compounds are then diluted 1:33.3 in HBSS1×. 5 μl/well of HBSS1×/20 mM HEPES/0.2% BSA are added to the assay plate followed by addition of 5 μl/well of diluted compounds. CXCL12 (Peprotech #300-28A) may be used as a reference agonist. The plate is incubated for 90 minutes at 37° C. 12 μl of detection reagent (Path Hunter Detection Kit, DiscoveRx, #93-0001) is transferred to the assay plate and to the plate is incubated for 1 hour at room temperature. Luminescent signal is read in a microplate reader (FLUOstar Optima, bmg). The calculated EC50 values may fluctuate depending on the daily cellular assay performance. Fluctuations of this kind are known to those skilled in the art. Average EC50 values from several measurements are given as geometric mean values.

Sequence of CXCR7 (P25106 whole entry): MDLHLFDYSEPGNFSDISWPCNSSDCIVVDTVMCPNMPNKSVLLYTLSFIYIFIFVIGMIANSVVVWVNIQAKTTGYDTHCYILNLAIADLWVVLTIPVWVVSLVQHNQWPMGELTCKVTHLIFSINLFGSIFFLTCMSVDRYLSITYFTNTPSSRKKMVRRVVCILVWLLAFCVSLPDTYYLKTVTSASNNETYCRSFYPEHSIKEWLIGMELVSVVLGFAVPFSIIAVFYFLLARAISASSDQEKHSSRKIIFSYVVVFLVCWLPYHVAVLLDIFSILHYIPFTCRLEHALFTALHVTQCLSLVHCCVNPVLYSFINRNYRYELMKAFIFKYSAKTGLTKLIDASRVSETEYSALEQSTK
Sequence of CXCR7 (P32121 whole entry partner): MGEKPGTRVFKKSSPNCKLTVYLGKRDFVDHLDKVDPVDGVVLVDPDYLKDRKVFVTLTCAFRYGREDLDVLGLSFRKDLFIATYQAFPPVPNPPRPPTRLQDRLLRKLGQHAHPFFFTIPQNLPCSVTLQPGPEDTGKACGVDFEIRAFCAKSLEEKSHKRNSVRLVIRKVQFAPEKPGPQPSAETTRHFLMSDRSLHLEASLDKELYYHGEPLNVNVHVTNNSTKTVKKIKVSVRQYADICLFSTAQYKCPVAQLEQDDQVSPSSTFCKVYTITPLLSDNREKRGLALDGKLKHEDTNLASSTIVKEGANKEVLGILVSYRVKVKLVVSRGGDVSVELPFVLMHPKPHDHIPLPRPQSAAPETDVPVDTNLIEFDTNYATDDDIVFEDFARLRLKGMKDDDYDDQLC

Row | Structure (SMILES) | EC50
1 | Cc1cccc(C)c1C(=O)Nc1cccc(CN2CCC(C(=O)NC3CCCCC3)CC2)c1 [Example 1.108] | 633 nM
2 | CC(C)(C)NC(=O)C1CCN(Cc2cccc(NC(=O)C3CC3(C)C)c2)CC1 (racemic) [Example 1.257] | 7 nM
3 | CCc1cncc(C(=O)Nc2cccc(CN3CCC(C(=O)NC(C)(C)C)CC3)c2)c1 [Example 1.241] | 4 nM
4 | O=C(Nc1cccc(CN2CCC(C(=O)NC3CCCC3)CC2)c1)c1cc(C(F)(F)F)ccn1 [Example 1.216] | 7 nM
5 | COc1ccc(CN2CCC(C(=O)NC(C)(C)C)CC2)cc1NC(=O)c1cncc(C)c1 [Example 1.305] | 7 nM
6 | O=C(Nc1cccc(CN2CCC(C(=O)NC3CCCCC3)CC2)c1)c1ccc(C(F)(F)F)cc1 [Example 1.105] | 5 nM
7 | CC(C)(C)NC(=O)C1CCN(Cc2cccc(NC(=O)c3ccc4ccccc4n3)c2)CC1 [Example 1.235] | 0.9 nM
8 | COc1ccccc1C(=O)Nc1cccc(CN2CCC(C(=O)NC3CCCCC3)CC2)c1 [Example 1.009] | 17 nM
9 | CCC(C)NC(=O)C1CCCN(Cc2cccc(NC(=O)c3cncc(C)c3)c2)CC1 (racemic) [Example 1.288] | 33 nM
10 | CCC(C)(C)NC(=O)C1CCN(Cc2cccc(NC(=O)c3ccc(C(F)(F)F)cn3)c2)CC1 [Example 1.341] | 1 nM
11 | CCC(C)(C)NC(=O)C1CCN(Cc2cccc(NC(=O)c3ccc(C(F)(F)F)c[n+]3[O-])c2)CC1 [Example 1.347] | 16 nM
12 | O=C(Nc1cccc(CN2CCC(C(=O)NC3CCCCC3)CC2)c1)c1ccc(C(F)(F)F)nc1 [Example 1.068] | 7 nM
13 | O=C(Nc1cccc(CN2CCC(C(=O)NC3CCCCC3)CC2)c1)c1ncccn1 [Example 1.087] | 36 nM
14 | N#Cc1ccc(C(=O)Nc2cccc(CN3CCC(C(=O)NC4CCCCC4)CC3)c2)cc1 [Example 1.107] | 8 nM
15 | CC(c1cccc(NC(=O)c2cccc(C(F)(F)F)n2)c1)N1CCC(C(=O)NC2CCCCC2)CC1 (racemic) [Example 1.187] | 7 nM
16 | N#Cc1cccc(C(=O)Nc2cccc(CN3CCC(C(=O)NC4CCCCC4)CC3)c2)c1 [Example 1.106] | 12 nM
17 | O=C(Nc1ccc(Cl)c(CN2CCC(C(=O)NC3CCCC3)CC2)c1)c1ccc(F)cc1 [Example 1.219] | 0.9 nM
18 | Cc1cc(F)cc(C(=O)Nc2cccc(CN3CCC(C(=O)NC4CCCCC4)CC3)c2)c1 [Example 1.117] | 4 nM
19 | CN1CCN(c2ccc(C(=O)Nc3cccc(CN4CCC(C(=O)NC5CCCCC5)CC4)c3)cn2)CC1 [Example 1.072] | 471 nM
20 | O=C(Nc1cccc(CN2CCC(C(=O)NC3CCCCC3)CC2)c1)c1cccc(Cl)c1 [Example 1.033] | 2 nM
21 | O=C(Nc1cccc(CN2CCC(C(=O)NC3CCCCC3)CC2)c1)c1ccc[nH]1 [Example 1.046] | 5 nM

Row | Structure (SMILES) | EC50
22 | Cc1cc(C(=O)Nc2cccc(C(C)N3CCC(C(=O)NC4CCCCC4)CC3)c2)c2cnn(C(C)C)c2n1 (racemic) [Example 1.186] | 86 nM
23 | O=C(Nc1cccc(CN2CCC(C(=O)NC3CCCC3)CC2)c1)c1ccc(C(F)(F)F)cn1 [Example 1.210] | 0.6 nM
24 | CC(c1cccc(NC(=O)c2ccncc2)c1)N1CCC(C(=O)NC2CCCCC2)CC1 (racemic) [Example 1.176] | 173 nM
25 | COc1cncc(C(=O)Nc2cccc(CN3CCC(C(=O)NC(C)(C)C)CC3)c2)c1 [Example 4.014, N-[3-(4-tert-Butylcarbamoyl-piperidin-1-ylmethyl)-phenyl]-5-methoxy-nicotinmide] | 8 nM
26 | O=C(Nc1ccc(Cl)c(CN2CCC(C(=O)NC3CCCC3)CC2)c1)c1ccc2ncccc2c1 [Example 1.221] | 1 nM
27 | CC(C)(C)NC(=O)C1CCN(Cc2cccc(NC(=O)c3ccc4snnc4c3)c2)CC1 [Example 1.355] | 3 nM
28 | CC(C)(C)c1ccc(C(=O)Nc2cccc(CN3CCC(C(=O)NC4CCCCC4)CC3)c2)cc1 [Example 1.032] | 34 nM
29 | O=C(Nc1cccc(CN2CCC(C(=O)NC3CCCCC3)CC2)c1)c1ccccn1 [Example 1.039] | 1 nM
30 | O=C(Nc1ccc(Cl)c(CN2CCC(C(=O)NC3CCCC3)CC2)c1)c1cccc(C(F)(F)F)n1 [Example 1.218] | 2 nM
31 | CC(C)(C)NC(=O)C1CCN(Cc2cccc(NC(=O)Cc3c(Cl)cccc3Cl)c2)CC1 [Example 1.245] | 1 nM
32 | Cc1ccc(C(=O)Nc2cccc(CN3CCC(C(=O)NC4CCCCC4)CC3)c2)c(F)c1 [Example 1.119] | 6 nM
33 | O=C(Nc1cccc(CN2CCC(C(=O)NC3CC3)CC2)c1)c1ccc(F)cc1 [Example 1.199] | 3 nM
34 | CCc1ccc(CN2CCC(C(=O)NC(C)(C)C)CC2)cc1NC(=O)c1cccc(C(F)(F)F)n1 [Example 1.326] | 2 nM
35 | CC(C)(C)NC(=O)C1CCN(Cc2nccc(NC(=O)c3cccc(C(F)(F)F)n3)n2)CC1 [Example 1.286] | 265 nM
36 | Cc1cccc(C(=O)Nc2cccc(CN3CCC(C(=O)NC4CCCCC4)CC3)c2)c1C [Example 1.109] | 40 nM
37 | Cc1cc(C(=O)Nc2cccc(CN3CCC(C(=O)NC4CC4)CC3)c2)ccn1 [Example 1.203] | 56 nM
38 | COc1cc(OC)cc(C(=O)Nc2cccc(CN3CCC(C(=O)NC4CCCCC4)CC3)c2)c1 [Example 1.125] | 10 nM
39 | O=C(Nc1cccc(CN2CCC(C(=O)NC3CCCC3)CC2)c1)c1cncc(Cl)c1 [Example 1.209] | 1 nM
40 | CCc1ccc(CN2CCC(C(=O)NC(C)(C)C)CC2)cc1NC(=O)c1ccc(F)cc1 [Example 1.328] | 8 nM
41 | CC(C)(C)NC(=O)C1CCN(Cc2cccc(NC(=O)C3C(C)(C)C3(C)C)c2)CC1 [Example 1.260] | 0.9 nM
42 | COc1ccc(C(=O)Nc2cccc(CN3CCC(C(=O)NC4CCCCC4)CC3)c2)cc1C [Example 1.122] | 15 nM

Row | Structure (SMILES) | EC50
43 | O=C(Nc1cccc(CN2CCC(C(=O)NC3CCCC3)CC2)c1)c1cncc(F)c1 [Example 1.215] | 2 nM
44 | Cc1cc(C(=O)Nc2cccc(CN3CCC(C(=O)NC(C)(C)C)CC3)c2)c[n+]([O-])c1 [Example 4.022, N-[3-(4-tert-Butylcarbamoyl-piperidin-1-ylmethyl)-phenyl]-5-methyl-1-oxy-nicotinamide] | 234 nM
45 | O=C(Nc1cccc(CN2CCC(C(=O)NC3CCCCC3)CC2)c1)c1ccc(F)cn1 [Example 1.057] | 0.8 nM
46 | COc1ncccc1C(=O)Nc1cccc(CN2CCC(C(=O)NC3CCCCC3)CC2)c1 [Example 1.069] | 10 nM
47 | CC(C)CN(C)C(=O)C1CCN(Cc2cccc(NC(=O)c3ccc(C(F)(F)F)cn3)c2)CC1 [Example 1.275] | 3 nM
48 | Cc1cncc(C(=O)Nc2cccc(CN3CC[C@H](C(=O)NC(C)(C)C)C[C@@H]3C)c2)c1 (racemic) [Example 2.103, rac-N-[3-((2S*,4S*)-4-tert-Butylcarbamoyl-2-methyl-piperidin-1-ylmethyl)-phenyl]-5-methyl-nicotinamide] | 17 nM
49 | CC(C)(C)NC(=O)C1CCN(Cc2cccc(NC(=O)Cc3cccc(C(F)(F)F)c3Cl)c2)CC1 [Example 1.249] | 2 nM
50 | CC(C)(C)NC(=O)C1CCN(Cc2cccc(NC(=O)Cc3cccc(Cl)c3Cl)c2)CC1 [Example 1.246] | 3 nM
51 | Cc1cc(C(=O)Nc2cccc(C(C)N3CCC(C(=O)NC4CCCCC4)CC3)c2)ccn1 (racemic) [Example 1.184] | 33 nM
52 | O=C(Nc1cccc(CN2CCC(C(=O)NC3CCCC3)CC2)c1)c1ccc2ncccc2c1 [Example 1.213] | 3 nM
53 | O=C(Nc1cccc(CN2CCC(C(=O)NC3CCCCC3)CC2)c1Cl)c1ccc(Cl)cc1 [Example 1.162] | 2780 nM
54 | CC(C)(C)NC(=O)C1CCN(Cc2cccc(NC(=O)c3cccnc3C(F)(F)F)c2)CC1 [Example 1.231] | 99 nM
55 | O=C(Nc1cccc(CN2CCC(C(=O)NC3CCCCC3)CC2)c1)c1ccno1 [Example 1.049] | 7 nM
56 | CCNC(=O)C1CCCN(Cc2cccc(NC(=O)c3cncc(C)c3)c2)CC1 (racemic) [Example 1.287] | 181 nM
57 | O=C(Nc1cccc(CN2CCC(C(=O)NC3CCCCC3)CC2)c1)c1c[nH]c2ccccc12 [Example 1.027] | 42 nM
58 | O=C(Nc1cccc(CN2CCC(C(=O)NC3CCCCC3)CC2)c1)c1cncc(C2CC2)c1 [Example 1.147] | 5 nM
59 | CC(C)(C)c1ccc(C(=O)Nc2cccc(CN3CCC(C(=O)NC4CCCCC4)CC3)c2)s1 [Example 1.283] | 34 nM
60 | Cc1cc(F)ccc1C(=O)Nc1cccc(CN2CCC(C(=O)NC3CCCCC3)CC2)c1 [Example 1.115] | 5 nM
61 | Cn1cc(C(=O)Nc2cccc(CN3CCC(C(=O)NC4CCCCC4)CC3)c2)c2ccccc21 [Example 1.026] | 182 nM
